Data published in US20250127907A1, “PARP INHIBITORS” (Stablix, Inc., priority 2023, published 2025).

Legend:
[1] = system: HCC1806 cells; assay: Cell proliferation assay (HCC1806); format: cell-based; conditions: Homo sapiens, 168 h, 7 days
[2] = system: A2780 cells; assay: Cell proliferation assay (A2780); format: cell-based; conditions: Homo sapiens, 168 h, 7 days
[3] = system: Poly/Mono-ADP Ribose in U2OS cells; assay: PAR in cell western assay (parylation) in U2OS cells; format: cell-based; conditions: Homo sapiens; U2OS cells, 6 hrs, 2 mM H2O2; read-out: Parylation (U2OS)
Outline: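 U2OS cells treated with compound for 6 h, then 2 mM H2O2 for 10 min to induce DNA damage. After methanol fixation, cells stained overnight at 4 °C with anti-mono/poly-ADP-ribose antibody and imaged by infrared in-cell western, normalized to CellTag 700; reported as % control inhibition.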

[4] = target: T1, PARP1 (Homo sapiens, UniProt P09874); assay: PARP trapping assay in U2OS cells; format: cell-based; design: endogenous in cells; host or cells: U2OS; conditions: U2OS cells, MMS, 4 hrs; read-out: PARP Trapping (U2OS)
Outline: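 U2OS cells co-treated with compounds and MMS for 4 h, then soluble proteins extracted with 0.5% Triton X-100, MeOH-fixed and immunostained for PARP1. Chromatin-bound PARP1 quantified as AF488 intensity per DAPI-segmented nucleus; potencies reported as letter-code bins.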
Target sequence in this assay (P09874 whole entry): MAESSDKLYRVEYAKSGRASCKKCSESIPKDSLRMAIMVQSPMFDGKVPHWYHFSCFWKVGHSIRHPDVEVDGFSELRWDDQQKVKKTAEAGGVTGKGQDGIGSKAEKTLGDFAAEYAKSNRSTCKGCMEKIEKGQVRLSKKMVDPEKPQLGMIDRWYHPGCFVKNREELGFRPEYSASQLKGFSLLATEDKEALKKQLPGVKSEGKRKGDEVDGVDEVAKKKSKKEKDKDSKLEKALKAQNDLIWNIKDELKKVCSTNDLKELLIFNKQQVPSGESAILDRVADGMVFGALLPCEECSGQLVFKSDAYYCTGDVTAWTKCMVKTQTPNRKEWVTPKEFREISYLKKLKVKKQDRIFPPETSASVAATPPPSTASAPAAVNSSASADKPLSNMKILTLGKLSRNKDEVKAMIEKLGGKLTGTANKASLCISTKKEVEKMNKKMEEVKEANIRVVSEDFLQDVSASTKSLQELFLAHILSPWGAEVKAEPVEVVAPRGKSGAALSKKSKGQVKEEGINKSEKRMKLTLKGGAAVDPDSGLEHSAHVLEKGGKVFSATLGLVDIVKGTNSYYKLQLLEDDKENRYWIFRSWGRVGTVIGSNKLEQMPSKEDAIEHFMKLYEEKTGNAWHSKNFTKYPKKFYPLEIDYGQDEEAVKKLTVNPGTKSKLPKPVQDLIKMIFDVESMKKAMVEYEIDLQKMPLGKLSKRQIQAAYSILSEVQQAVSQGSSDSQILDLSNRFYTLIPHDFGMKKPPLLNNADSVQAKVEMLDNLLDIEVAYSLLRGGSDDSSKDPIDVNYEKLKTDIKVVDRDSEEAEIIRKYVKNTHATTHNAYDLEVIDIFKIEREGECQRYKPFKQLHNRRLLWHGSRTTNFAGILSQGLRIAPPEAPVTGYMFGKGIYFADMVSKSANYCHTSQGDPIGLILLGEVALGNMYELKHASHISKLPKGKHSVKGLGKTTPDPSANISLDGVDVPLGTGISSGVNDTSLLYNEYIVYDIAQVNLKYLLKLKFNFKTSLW

[5] = target: T1, PARP1; assay: PARP1-enzyme assay (NAD/NADH-Glo biochemical assay); conditions: recombinant PARP1, NAD+ consumption
Experimental: The PARP enzyme catalyzes the transfer of ADP-Ribose from NAD+ onto PAR chains/histone substrates. The catalytic cycle is monitored indirectly with the NAD/NADH-Glo Assay kit from Promega. […] NAD+ consumed is determined by comparison to the no enzyme control.
• Recombinant PARP1 • NAD+/NAHD-Glow assay Kit • Activated DNA, 10 μg/mL • NAD+(Nicotinamide Adenine Dinucleotide), 500 nM • Protein substrate for PARP1: Core Histone from chicken, 10 μg/mL
The letter codes for the PARP1-enzyme assay include: A (<1 nM), B (>1-10 nM), C (>10-100 nM), D (>100-1000 nM), E (>1000 nM), and “-” is not tested. The letter codes for the PARP trapping assay, and parylation assay include: A (<10 nM), B (>10-100 nM), C (>100-1000 nM), […], E (>10000 nM), and “-” is not tested.
Target sequence in this assay (P09874 whole entry, species assumed): as the sequence (P09874 whole entry) above

[6] = system: MDA-MB-436 cells; assay: Cell proliferation assay (MDA-MB-436); format: cell-based; conditions: Homo sapiens, 168 h, 7 days

IC50 [1] [nM]	IC50 [2] [nM]	IC50 [3] [nM]	IC50 [4] [nM]	IC50 [5] [nM]	IC50 [6] [nM]	Compound
10 to 100	10 to 100	10 to 100	10 to 100	< 1	< 10	CCc1cccc(-c2cc(F)c(C(=O)N3CCC(CN4CCN(CC(=O)N5CCN(C(=O)c6cc(Cc7n[nH]c(=O)c8ccccc78)ccc6F)CC5)CC4)CC3)c(F)c2)c1 [Compound I-410]
10 to 100	10 to 100	100 to 1000	10 to 100	< 1	< 10	O=C(N[C@@H](C(=O)N1CCC(OC2CCN(CC(=O)N3CCN(C(=O)c4cc(Cc5n[nH]c(=O)c6ccccc56)ccc4F)CC3)CC2)CC1)C1CCCCC1)c1cccc(C2CCCN(C(=O)C3CC3)C2)c1F (stereo partly drawn) [Compound I-457]
10 to 100	10 to 100	10 to 100	10 to 100	< 1	< 10	CC(C)(C)OC(=O)N[C@@H](C(=O)N1CCC(OC2CCN(CC(=O)N3CCN(C(=O)c4cc(Cc5n[nH]c(=O)c6ccccc56)ccc4F)CC3)CC2)CC1)C1CCCCC1 [Compound I-787]
100 to 1000	100 to 1000	10 to 100	100 to 1000	< 1	10 to 100	O=C(N[C@@H](C(=O)N1CCN(CC2CCN(CC(=O)N3CCN(C(=O)c4cc(Cc5n[nH]c(=O)c6ccccc56)ccc4F)CC3)CC2)CC1)C1CCCCC1)c1cccc(C2CCCN(C(=O)C3CC3)C2)c1 (stereo partly drawn) [Compound I-962]
